Measurements reported in PMC7733455, “A novel multistage antiplasmodial inhibitor targeting Plasmodium falciparum histone deacetylase 1” (Cell Discovery, 2020).

What was measured:
[1] = test system: parasite histone H3 acetylation; assay: Western blot of histone H3 acetylation in parasites; format: cell-based, Plasmodium falciparum; settings: 4 h treatment of asynchronous 3D7; quisinostat/JX21108 5 and 20 nM, SAHA 500 nM
Description: Then the parasite samples were harvested and treated with 0.15% saponin to remove the RBC proteins and sonicated in 1% NP40 lysis buffer. After centrifugation at 12,000× g for 15 min, the supernatant was resuspended in a routine SDS loading buffer. Parasite proteins were separated by 10% SDS-PAGE and transferred onto PVDF membranes (Millipore). […] A2348) followed by a secondary antibody conjugated with HRP (Jackson Immuno Research Laboratories). The chemiluminescent HRP substrate Immobilon Western Kit (Millipore) was used for signal detection.

P. falciparum GB4 = assay: 3-day SYBR Green I GIA, strain GB4; format: cell-based; settings: Plasmodium falciparum; GB4 resistant to chloroquine; read-out: Resistant isolates EC50, GB4
Description: (§1) A 3-day SYBR Green I inhibition EC50 assay was performed as described previously. Briefly, highly synchronized ring-stage parasites by 5% sorbitol (1% parasitemia and 2% hematocrit) were incubated in a 96-well plate with compounds in a total volume of 200 μL. […] The parasites were cultured for 72 h before SYBR Green I staining as described above. The EC50 was calculated by GraphPad Prism. DHA was used as a positive control, and the final concentration of DMSO was 1%.

P. falciparum C2A = assay: 3-day SYBR Green I GIA, strain C2A; format: cell-based; settings: Plasmodium falciparum, read-out: Resistant isolates EC50, C2A
Description: as §1

P. falciparum CP286 = assay: 3-day SYBR Green I GIA, strain CP286; format: cell-based; settings: Plasmodium falciparum; CP286 resistant to pyrimethamine and chloroquine; read-out: Resistant isolates EC50, CP286
Description: as §1

[2] = test system: P. falciparum isolate 6218; assay: 3-day SYBR Green I GIA, field isolate 6218; format: cell-based; settings: Plasmodium falciparum; artemisinin- and piperaquine-resistant isolate; read-out: Resistant isolates EC50, 6218
Description: as §1

[3] = test system: P. falciparum isolate 6320; assay: 3-day SYBR Green I GIA, field isolate 6320; format: cell-based; settings: Plasmodium falciparum; artemisinin- and piperaquine-resistant isolate; read-out: Resistant isolates EC50, 6320
Description: as §1

[4] = test system: P. falciparum clinical isolates 6218 and 6320; assay: Ring-stage survival assay (RSA), isolates 6218 and 6320; format: cell-based, Plasmodium falciparum; settings: 700 nM, 6 h exposure, synchronized rings of isolates 6218 and 6320
Description: An RSA was performed as described previously[65] to evaluate the activity of JX21108 against the artemisinin- and piperaquine-resistant P. falciparum clinical isolates 6218 and 6320[43]. Briefly, parasites were highly synchronized at 0–3 hpi by a 60%/40%-Percoll gradient[66] followed by 5% D-sorbitol[67] treatment after 3 h. The parasite suspension (0.5%–1% parasitemia, 2% hematocrit) was incubated with compounds at 700 nM in a total volume of 2 mL in a 48-well plate for 6 h. After that, the culture mixture was washed three times with 15 mL of CM before another 66 h of cultivation with CM. A Giemsa-stained blood smear was made after cultivation. Parasitemia was counted from at least 10,000 RBCs by microscopy. The survival rate was calculated as the percentage of that in DMSO control. DHA at a concentration of 700 nM served as a positive control.

P. falciparum 3D7 [5] = assay: Ring-stage survival assay (RSA), sensitive strain 3D7; format: cell-based, Plasmodium falciparum; settings: 700 nM
P. falciparum 3D7 [6] = assay: 3-day SYBR Green I growth inhibition assay (GIA), strain 3D7; format: cell-based, Plasmodium falciparum; settings: Plasmodium falciparum, 3D7, 72 h, 3-day SYBR Green I GIA, drug-sensitive strain 3D7; read-out: Antiplasmodial activity EC50, 3D7
Description: as §1

P. falciparum Dd2 = assay: 3-day SYBR Green I GIA, multidrug-resistant strain Dd2; format: cell-based, Plasmodium falciparum; settings: Plasmodium falciparum, 72 h; 3-day SYBR Green I GIA, multidrug-resistant strain Dd2; read-out: Antiplasmodial activity EC50, Dd2
Description: as §1

[7] = In vitro cytotoxicity analysis (CellTiter-Glo), HepG2; settings: human, HepG2 cells
Description: (§2) In all, 1% DMSO was used as a negative control. The inhibition of each drug was normalized to that of the DMSO control. EC50 was calculated by GraphPad Prism. Three independent assays with two technical replicates each time were conducted in this experiment.

HepG2 cells = assay: as above; settings: for Selectivity index (range over HepG2 and 293T): HepG2 and 293T vs 3D7
Description: as §2

[8] = In vitro cytotoxicity analysis (CellTiter-Glo), 293T; settings: human, 293T cells, Cytotoxicity EC50, 293T, 72 h, CellTiter-Glo
Description: as §2

293T cells = assay: as above
Description: as §2

| Compound | pan-acetylation levels of parasite histone H3 [1] | EC50 (P. falciparum GB4) [nM] | EC50 (P. falciparum C2A) [nM] | EC50 (P. falciparum CP286) [nM] | EC50 [2] [nM] | EC50 [3] [nM] | RSA survival rate [4] [%] | RSA effect on ring-stage parasites of 3D7 (P. falciparum 3D7 [5]) | EC50 (P. falciparum 3D7 [6]) [nM] | EC50 (P. falciparum Dd2) [nM] | EC50 at 72 h [7] [nM] | Selectivity index for HepG2 (EC50 HepG2/EC50 3D7) (HepG2 cells) | EC50 at 72 h [8] [nM] | Selectivity index for 293T (EC50 293T/EC50 3D7) (293T cells) | Selectivity index (range over HepG2 and 293T) (HepG2 cells) |
| --- | --- | --- | --- | --- | --- | --- | --- | --- | --- | --- | --- | --- | --- | --- | --- |
| O=C(CCCCCCC(=O)Nc1ccccc1)NO [SAHA] | greatly increased the pan-acetylation levels of parasite histone H3 |  |  |  |  |  |  |  |  |  |  |  |  |  |  |
| C[C@H]1[C@@H](O)O[C@@H]2O[C@@]3(C)CC[C@H]4[C@H](C)CC[C@@H]1[C@@]24OO3 [DHA, dihydroartemisinin, reference compound] |  | 3.2 ± 1.2 | 3.7 ± 2.4 | 5.6 ± 2.4 | 5.5 ± 1.1 | 6.5 ± 1.4 | ~8 | efficiently killed the ring-stage parasites |  |  |  |  |  |  |  |
| Cl.Cn1nc(CN2CCC3(CCN(c4ncc(C(=O)NO)cn4)C3)C2)c2ccccc21 (stereo not shown) [JX21124] |  |  |  |  |  |  |  |  | 5.8 ± 0.9 | 4.3 ± 0.5 | 1130 ± 168 | 195 | 1330 ± 29 | 229 |  |
| Cl.Cn1cc(CN2CC3CN(c4ncc(C(=O)NO)cn4)CC3C2)c2ccccc21 (stereo not shown) [JX21002] |  |  |  |  |  |  |  |  | 4.4 ± 0.2 | 7 ± 0.2 | 128 ± 2 | 29 | 307 ± 4 | 70 | 24–70 |
| Cl.Cn1c(CN2CCC3(CCN(c4ncc(C(=O)NO)cn4)C3)C2)cc2ccccc21 (stereo not shown) [JX21123] |  |  |  |  |  |  |  |  | 6.2 ± 1.3 | 7.2 ± 0.3 | 1250 ± 62 | 202 | 1200 ± 156 | 193 |  |
| Cl.Cn1cc(CN2CCC3(CCCN(c4ncc(C(=O)NO)cn4)C3)CC2)c2ccccc21 [JX21017] |  |  |  |  |  |  |  |  | 28.9 ± 1.2 | 32.4 ± 1.8 | 2350 ± 93 | 98 | 4497 ± 33 | 156 |  |
| CN(c1ncc(C(=O)NO)cn1)C1CCN(Cc2cn(C)c3ccccc23)CC1.Cl [JX21006] |  |  |  |  |  |  |  |  | 26.5 ± 1.2 | 32 ± 2.5 | 37 ± 10 | 1 | 118 ± 24 | 4 |  |
| COc1ccc2c(CN3CCC4(CCN(c5ncc(C(=O)NO)cn5)C4)C3)cn(C)c2c1.Cl (stereo not shown) [JX21142] |  |  |  |  |  |  |  |  | 13.6 ± 4.2 | 3.4 ± 2.2 | 975 ± 1 | 72 | 1230 ± 102 | 90 |  |
| Cn1cc(CN2CCC3(CCN(c4ncc(C(=O)NO)cn4)C3)C2)c2ccccc21 (stereo not shown) [JX21011] |  |  |  |  |  |  |  |  | 3 ± 0.7 | 3.2 ± 0.1 | 113 ± 1 | 38 | 72 ± 10 | 24 | 24–70 |
| Cl.O=C(NO)c1cnc(N2CCC3(CCN(Cc4c5ccccc5cc5ccccc45)C3)C2)nc1 (stereo not shown) [JX21138] |  |  |  |  |  |  |  |  | 28.8 ± 18.5 | 21.2 ± 0.9 | 1310 ± 14 | 45 | 1990 ± 559 | 69 |  |
| Cl.Cn1cc(CN2CCC3(CCN(c4ncc(C(=O)NO)cn4)C3)C2)c2ccncc21 (stereo not shown) [JX21129] |  |  |  |  |  |  |  |  | 8 ± 0.5 | 7.8 ± 1.3 | 1530 ± 69 | 192 | 1120 ± 98 | 141 |  |
| Cl.Cn1cc(CN2CC3(CCN(c4ncc(C(=O)NO)cn4)CC3)C2)c2ccccc21 [JX21014] |  |  |  |  |  |  |  |  | 16.9 ± 0.8 | 10.7 ± 0.2 | 348 ± 24 | 21 | 1130 ± 26 | 67 |  |
| Cl.Cn1cc(CN2CCC3(CCN(c4ncc(C(=O)NO)cn4)C3)C2)c2cccnc21 (stereo not shown) [JX21130] |  |  |  |  |  |  |  |  | 8.4 ± 0.4 | 7.5 ± 2 | 1180 ± 84 | 140 | 4640 ± 375 | 552 |  |
| Cl.Cn1cc(CN2CCC3(CCN(c4ncc(C(=O)NO)cn4)C3)C2)c2cc(Br)ccc21 (stereo not shown) [JX21141] |  |  |  |  |  |  |  |  | 3.3 ± 0.5 | 1.736 ± 0.005 | 294 ± 45 | 88 | 633 ± 209 | 189 |  |
| Cl.O=C(NO)c1cnc(N2CCC3(CCN(Cc4ccc5c(c4)OCO5)C3)C2)nc1 (stereo not shown) [JX21140] |  |  |  |  |  |  |  |  | 10.5 ± 0.1 | 5.4 ± 0.2 | 493 ± 149 | 47 | 2450 ± 301 | 235 |  |
| Cl.O=C(NO)c1cnc(N2CCC3(CCN(Cc4csc5ccccc45)C3)C2)nc1 (stereo not shown) [JX21115] |  |  |  |  |  |  |  |  | 4.8 ± 0.1 | 7.2 ± 0.2 | 864 ± 76 | 179 | 482 ± 42 | 100 |  |
| COc1ccc2c(c1)c(CN1CCC3(CCN(c4ncc(C(=O)NO)cn4)C3)C1)cn2C.Cl (stereo not shown) [JX21104] |  |  |  |  |  |  |  |  | 1.6 ± 0.3 | 3 ± 0.1 | 534 ± 45 | 176 | 659 ± 128 | 217 |  |
| Cl.O=C(NO)c1cnc(N2CCC3(CCN(Cc4cc5ccccc5o4)C3)C2)nc1 (stereo not shown) [JX21117] |  |  |  |  |  |  |  |  | 6.4 ± 0.3 | 7.61 ± 0.05 | 1640 ± 25 | 255 | 1610 ± 334 | 252 |  |
